Source: US7465722B2, “Biphenyl vasopressin agonists” (Wyeth, priority 2001, dated 2008)

Tests used:
[1] = target: T1, Vasopressin V2 (Rattus norvegicus, UniProt Q00788); experiment: Vasopressin V2 agonist effects of test compounds in normal conscious water-loaded rats; assay type: in vivo; settings: oral dose of 10 mg/Kg, urine collected for four hours, Sprague-Dawley (CD) rats; for Urine Volume (% decrease): percent decrease in urine volume vs control; for Urinary Osmolality (% increase): percent increase in osmolality vs control
T1 construct: Vasopressin V2 Agonist Effects of Test Compounds in Normal Conscious Water-Loaded Rats; from tissue; host or cells: whole animal: conscious Sprague-Dawley rats (kidney collecting ducts in vivo)
T1 sequence (Q00788 whole entry): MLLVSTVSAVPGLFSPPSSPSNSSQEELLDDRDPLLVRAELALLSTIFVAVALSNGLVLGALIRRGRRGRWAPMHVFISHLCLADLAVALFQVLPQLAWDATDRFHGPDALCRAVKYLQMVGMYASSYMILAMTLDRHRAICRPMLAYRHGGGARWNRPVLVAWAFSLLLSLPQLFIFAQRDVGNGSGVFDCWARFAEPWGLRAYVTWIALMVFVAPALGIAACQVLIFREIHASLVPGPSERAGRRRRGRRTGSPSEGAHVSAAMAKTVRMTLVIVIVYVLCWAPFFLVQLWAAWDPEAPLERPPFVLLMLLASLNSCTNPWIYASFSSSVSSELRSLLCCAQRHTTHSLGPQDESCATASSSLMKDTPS
From the text: Vasopressin V2 Agonist Effects of Test Compounds in Normal Conscious Water-Loaded Rats
Male or female normotensive Sprague-Dawley rats (Charles River Laboratories, Inc., Kingston, N.Y.) of 350-500 g body weight were supplied with standard rodent diet (Purina Rodent Lab. Chow 5001) and water ad libitum. On the day of test, rats were placed individually into metabolic cages equipped with devices to separate the feces from the urine and containers for collection of urine. A test compound or a reference agent was given at an oral dose of 10 mg/Kg in a volume of 10 mL/Kg. The vehicle used was 2.5% preboiled corn starch in 20% dimethylsulfoxide (DMSO). Thirty minutes after dosing the test compound, rats were gavaged with water at 30 mL/Kg into the stomach using a feeding needle. During the test, rats were not provided with water or food. Urine was collected for four hours after dosing of the test compound. At the end of four hours, urine volume was measured. Urinary osmolality was determined using a Fiske One-Ten Osmometer (Fiske Associates, Norwood, Mass., 02062) or an Advanced CRYOMATIC Osmometer, Model 3C2 (Advanced Instruments, Norwood, Mass.). Determinations of Na^+, K^+ and Cl^− ion were carried out using ion specific electrodes in a Beckman SYNCHRON ELISE Electrolyte System analyzer. The urinary osmolality should increase proportionally. In the screening test, two rats were used for each compound. If the difference in the urine volume of the two rats was greater than 50%, a third rat was used.

| Structure (SMILES) | Urine Volume (% decrease) [1] [%] | Urinary Osmolality (% increase) [1] [%] | melting point [°C] |
| --- | --- | --- | --- |
| COc1ccccc1-c1ccc(C(=O)N2Cc3cccn3Cc3ccccc32)cc1 [Example 1, (2′-Methoxy-[1,1′-biphenyl]-4-yl)-(5H,11H-pyrrolo[2,1-c][1,4]benzodiazepin-10-yl)-methanone] | 67 | 163 | 145 to 147 |
| COc1ccc(-c2ccc(C(=O)N3Cc4cccn4Cc4ccccc43)c(C)c2)cc1 [Example 10, (5H,11H-Benzo[e]pyrrolo[1,2-a][1,4]diazepin-10-yl)-(4′-methoxy-3-methyl-[1,1′-biphenyl]-4-yl)-methanone] | 60 | 234 |  |
| CN1c2ccccc2N(C(=O)c2ccc(-c3ccccc3)cc2)Cc2cccnc21 [Example 5, [1,1′-Biphenyl]-4-yl-(11-methyl-5,11-dihydro-benzo[b]pyrido[2,3-e][1,4]diazepin-6-yl)-methanone] | 22 | 26 | 220 to 223 |
| O=C(c1ccc(-c2ccccc2)cc1)N1Cc2ccccc2Nc2ccccc21 [Example 6, [1,1′-Biphenyl]-4-yl-(5,11-dihydro-10H-dibenzo[b,e][1,4]diazepin-10-yl)methanone] | 87 | 247 | 180 to 182 |
| CN1c2ccccc2CN(C(=O)c2ccc(-c3ccccc3)cc2)c2ccccc21 [Example 7, [1,1′-Biphenyl]-4-yl-(5-methyl-5,11-dihydro-10H-dibenzo[b,e][1,4]diazepin-10-yl)methanone] | 70 | 189 | 198 to 201 |
| O=C(c1ccc(-c2ccccc2)nc1)N1Cc2cccn2Cc2ccccc21 [Example 9, (5H,11H-Benzo[e]pyrrolo[1,2-a][1,4]diazepin-10-yl)-(6-phenyl-pyridin-3-yl)-methanone] | 62 | 156 | 171 to 174 |

Now from value to compound:

| Urine Volume (% decrease) [1] [%] | Urinary Osmolality (% increase) [1] [%] | melting point [°C] | Structure (SMILES) |
| --- | --- | --- | --- |
| 27 | 33 | 128 to 130 | Cc1cccc(-c2ccc(C(=O)N3Cc4cccn4Cc4ccccc43)cc2)c1 [Example 2, (10,11-Dihydro-5H-pyrrolo[2,1-c][1,4]benzodiazepin-10-yl)-(3′-methyl-[1,1′-biphenyl]-4-yl)-methanone] |
| 18 | 78 | 187 to 189 | COc1ccc(-c2ccc(C(=O)N3Cc4cccn4Cc4ccccc43)cc2)cc1 [Example 3, (10,11-Dihydro-5H-pyrrolo[2,1-c][1,4]benzodiazepin-10-yl)-(4′-methoxy[1,1′-biphenyl]-4-yl)-methanone] |
| 35 | 73 | 164 to 166 | O=C(c1ccc(-c2ccccc2)cc1)N1CCCCc2sccc21 [Example 8, [1,1′-Biphenyl]-4-yl-(5,6,7,8-tetrahydro-thieno[3,2-b]azepin-4-yl)-methanone] |
| 56 | 151 | 175 to 177 | O=C(c1ccc(-c2ccccc2)cc1)N1Cc2cccnc2Nc2ccccc21 [Example 4, [1,1′-Biphenyl]-4-yl-(5,11-dihydro-benzo[b]pyrido[2,3-e][1,4]diazepin-6-yl)-methanone] |
